Among the data in patent US20240269220A1, “USES OF BLETILLA FORMOSANA EXTRACT FOR THE TREATMENT OF DISEASES ASSOCIATED WITH DYSREGULATED ACTIVATION OF NEUTROPHILS” (Chang Gung University, priority 2022, published 2024) are IC50 values, retold here.

Test [1] deals with fMLF/CB-activated human neutrophils. Put plainly: Extracellular superoxide anion production (ferricytochrome c reduction) in fMLF/CB-activated human neutrophils. The conditions noted are these: Neutrophil, chemical components of the extract, read-out: Superoxide anions IC50. The format is cell-based. How it is done:
(§1) The study was conducted with the approval of the Institutional Review Board of Chang Gung Memorial Hospital in accordance with the Declaration of Helsinki. After written informed consent was obtained, whole blood samples were drawn from healthy individuals aged 20-30 years who had not taken any medication within the previous 5 weeks. Neutrophils were then isolated using the standard procedures for dextran sedimentation, Ficoll-Hypaque gradient centrifugation, and hypotonic lysis of erythrocytes. The isolated neutrophils were then suspended in Ca^2+-free HBSS (pH 7.4) and stored at 4° C. until use.
Extracellular superoxide anion production in activated neutrophils was assessed through the reduction of ferricytochrome c. After incubating them with Ca^2+(1 mM) and ferricytochrome c (0.6 mg/mL) at 37° C., the isolated human neutrophils (6×10^5 cells/mL) were then incubated with DMSO or the present B. formosana extract for 5 min. The cells were pretreated with cytochalasin B (CB, 1 or 2 μg/mL) for 3 min and stimulated with fMLF. The change in absorbance at 550 nm was detected continuously using a spectrophotometer (U-3010, Hitachi, Tokyo, Japan), and superoxide anion levels were calculated using a method described previously (Hwang et al., 2003 Mol. Pharmacol. 64(6), 1419-1427).

Test [2] has the same test system. Description: Neutrophil elastase release in fMLF/CB-activated human neutrophils. The format is cell-based. Particulars: chemical components of the extract. The protocol: as §1
Human neutrophils (6×10^5 cells/mL) were incubated with DMSO or the present B. formosana extract after treatment with 1 mM CaCl2 and 100 μM NE substrate (Methoxysuccinyl-Ala-Ala-Pro-Val-p-nitroanilide) at 37° C. for 5 min. Cells were stimulated with fMLF (0.1 μM)/cytochalasin B (CB) (0.5 μg/mL) for 10 min before determination of NE release by measuring the change of absorbance at 405 nm in a spectrophotometer.

One may read the IC50 as the concentration that inhibits the measured activity by half. Consider `COc1cccc(CCc2cc(O)cc(OC)c2)c1` [BF8-4-2, 3′,5-dimethoxy-3-hydroxybibenzyl], for which the IC50 is 4.63 ± 0.54 µM in test [1] and over 10 µM in test [2].
Taken in the same sequence, the figures for `COc1cc(CCc2cccc(O)c2)cc(OC)c1` [BF8-4-3, 3,5-dimethoxy-3′-hydroxybibenzyl] were 4.64 ± 0.23 µM and 7.41 ± 0.5 µM.
The matching figures for `COc1cc(O)cc(CCc2ccccc2)c1` [BF8-4-4, 3-hydroxy-5-methoxybibenzyl]: 1.86 ± 0.21 µM and 2.71 ± 0.16 µM.
As to `COc1cc(O)cc(CCc2cccc(O)c2)c1` [Batatasin III, 3,3′-dihydroxy-5-methoxybibenzyl], the IC50 was 4.3 ± 0.5 µM in test [1] and over 10 µM in test [2].
The matching figures for `COc1cc(O)c(Cc2ccc(O)cc2)c2c1-c1ccc(O)cc1CC2` [Orchidble, 9,10-dihydro-1-[(4-hydroxyphenyl)methyl]-4-methoxy-2,7-phenanthrenediol]: 0.66 ± 0.12 µM and 6.26 ± 1.19 µM.
